Measured values: patent US10744150B2, “Cyclic dinucleotides as anticancer agents” (BRISTOL-MYERS SQUIBB COMPANY, priority 2017, dated 2020)
Like-named read-outs stand apart in the source and are kept apart here.

Legend:
[1] = target: T1, STING AQ: His-TVMV-S-hSTING(155-341)-G230A-R293Q (Homo sapiens, UniProt Q86WV6, G230A/H232R/R293Q); assay: STING HTRF binding assay (time resolved FRET competition), STING AQ; conditions: 20 nM His-tagged STING cytoplasmic domain, 40 nM fluorescein-labeled cGAMP analog probe, one hour; read-out: HTRF Binding Assays IC50 STING AQ
T1 construct: His-TVMV-S-hSTING(155-341)-G230A-R293Q
Description: (§1) A time resolved FRET-based competition binding assay was used to assess test article binding to STING WT and STING AQ. His-tagged STING cytoplasmic domain (WT or AQ) at a concentration of 20 nM was incubated with 2.5 nM Tb-labeled anti-His antibody, test compound, and fluorescein-labeled cGAMP analog probe (BioLog cat. no. C195) at a concentration of 200 nM (STING WT) or 40 nM (STING AQ) in PBS containing 0.005% Tween-20 and 0.1% BSA for one hour. Fluorescence at 495 nm and 520 nm was measured using an EnVision microplate reader to quantify FRET between Tb-labeled anti-His antibody and fluorescein-labeled probe. Background was defined as the signal obtained in the absence of STING protein, and background subtracted FRET ratios were normalized to the maximum signal obtained in the absence of test compound. These values were converted to a percent inhibition. Percent inhibition was determined for test compounds at 11 concentrations. The IC50, defined as the concentration of competing test compound needed to reduce specific binding of the probe by 50%, was calculated using the 4 parameter logistic equation to fit the data

IRF3 = assay: STING THP1 reporter assay, IRF pathway (secreted luciferase Lucia, QUANTI-Luc); assay type: cell-based; conditions: THP1-Dual cells, 10% human plasma, 100% activation = 100 μM cGAMP, luciferase readout, read-out: THP1 Reporter Assays EC50 IRF3
Text: (§2) THP1-Dual™ cells were derived from the human THP-1 monocyte cell line by stable integration of two inducible reporter constructs. To this end, THP1-Dual™ cells allow the simultaneous study of the NF-κB pathway, by monitoring the activity of SEAP, and the IRF pathway by assessing the activity of a secreted luciferase (Lucia). Both reporter proteins are readily measurable in the cell culture supernatant when using QUANTI-Blue™, a SEAP detection reagent, and QUANTI-Luc™, a luciferase detection reagent.
(§3) THP1-Dual™ cells induce the activation of NF-κB in response to STING agonists. They also trigger the IRF pathway upon stimulation with STING agonists, such as cGAMP. Here, the THP-1-Dual cells were used to assess STING binders for function on the cellular level.
(§4) Serial dilutions of compounds in DMSO were added to low volume 384 well plates at 100 nl/well using an ECHO acoustic dispenser (Labcyte, model 550) to achieve final starting concentration of 100 μM in cell suspension. THP-1 Dual™ STING reporter cells (Invivogen, Dual cells cat # THPD-nfis) were added to the plates with compounds at 15,000 cells in 10 μL per well in RPMI media (Gibco, cat #11875) containing 10% human plasma in a low volume 384-well black wall clear bottom tissue culture plate (Corning, cat #3542) for SEAP assay and low volume solid white plate (Corning, cat #3826) for luciferase assay. One column of the plate was reserved for treatment with cGAMP at 100 μM for 100% activation calculation and one column for no treatment (DMSO only) for baseline activation. Plates were then incubated in 37° C. incubator at 5% CO2 for 20 hours.
(§5) In the SEAP assay, 5 μl of 2× QuantiBlue (Invivogen, cat # Rep-qb2) is added to 384 well black plates seeded with THP1 cells and incubated at 37° C. for 2 hours. Plates were read on the Envision (Perkin Elmer) at 620 nm wavelength (OD620). In the luciferase assay, 5 μl of Quantiluc (Invivogen, Rep-qlc2) is added to white 384 well plates seeded with THP1 cells and read at 5 minutes on the Envision (Perkin Elmer) using a luminescence protocol (RLU). For both cell lines, 100% activation was determined by value (RLU) of THP-1 Dual STING cells stimulated with 100 μM cGAMP (Invivogen, cat # TLRL-NACGA23-5).

[2] = target: T2, STING WT: His-TVMV-S-hSTING(155-341)-H232R (Homo sapiens, UniProt Q86WV6, H232R); assay: STING HTRF binding assay (time resolved FRET competition), STING WT; conditions: 20 nM His-tagged STING cytoplasmic domain, 200 nM fluorescein-labeled cGAMP analog probe, one hour; read-out: HTRF Binding Assays IC50 STING WT
T2 construct: His-TVMV-S-hSTING(155-341)-H232R
Description: as §1

NFkB = assay: STING THP1 reporter assay, NF-κB pathway (SEAP, QUANTI-Blue); assay type: cell-based; conditions: THP1-Dual cells, 10% human plasma, 100% activation = 100 μM cGAMP
Text: as §2, §3, §4, §5

[3] = 20 hours, SEAP readout OD620, read-out: THP1 Reporter Assays EC50 NFkB
[4] = Homo sapiens, THP-1, 20 h, SEAP readout OD620, read-out: THP1 Reporter Assays EC50 NFkB

T1 sequence (Q86WV6 with tags, fused parts or gaps G230A/H232R/R293Q): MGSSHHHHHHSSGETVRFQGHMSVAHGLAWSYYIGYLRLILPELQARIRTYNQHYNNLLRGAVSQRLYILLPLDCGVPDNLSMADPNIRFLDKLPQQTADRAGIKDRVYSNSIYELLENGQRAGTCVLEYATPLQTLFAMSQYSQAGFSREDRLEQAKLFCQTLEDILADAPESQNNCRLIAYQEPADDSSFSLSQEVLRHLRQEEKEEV
T2 sequence (Q86WV6 with tags, fused parts or gaps H232R): as the sequence (Q86WV6 with tags, fused parts or gaps G230A/H232R/R293Q) above, with A99G, Q162R counted along it

`Nc1ncnc2c1ncn2[C@@H]1C[C@@H]2COP(O)(=S)O[C@@H]3[C@H](O)[C@@H](COP(O)(=S)OC[C@H]21)O[C@H]3n1cnc2c(O)nc3nccn3c21` (single isomer, unassigned) [Example 15-3] was tested, and the IC50 [1] was 1.2 µM, the EC50 (IRF3; 20 hours) was greater than 100 µM and the IC50 [2] was 32.6 µM. For the same molecule, the EC50 (NFkB; [3]) was greater than 100 µM.
In the case of `Nc1ncnc2c1ncn2[C@@H]1C[C@@H]2COP(O)(=S)O[C@H]3[C@@H](F)[C@H](n4cnc5c(=O)[nH]c6nccn6c54)O[C@@H]3COP(O)(=S)OC[C@H]21` (single isomer, unassigned) [Example 9-1], the IC50 [1] is reported as 20 µM, the EC50 (IRF3; Homo sapiens, THP-1, 20 h) is reported as greater than 100 µM and the IC50 [2] is reported as greater than 100 µM. The EC50 (NFkB; [4]) was greater than 100 µM.
`NC(=O)c1cccc2c1nnn2[C@@H]1O[C@@H]2COP(O)(=S)OC[C@@H]3[C@@H](COP(O)(=S)O[C@H]2[C@H]1F)C[C@H]3n1cnc2c(N)ncnc21` (single isomer, unassigned) [Example 12-4] showed an IC50 [1] of 0.4 µM, an EC50 (IRF3; 20 hours) greater than 100 µM and an IC50 [2] of 22 µM. It also gave an EC50 (NFkB; [3]) greater than 100 µM.
`Nc1ncnc2c1ncn2[C@@H]1C[C@@H]2COP(O)(=S)O[C@H]3[C@H](F)[C@H](n4cnc5c(N)ncnc54)O[C@@H]3COP(O)(=S)OC[C@H]21` (single isomer, unassigned) [Example 17-2] was tested, and the IC50 [1] was 1.9 µM, the EC50 (IRF3; 20 hours) was greater than 100 µM and the IC50 [2] was greater than 100 µM. For the same molecule, the EC50 (NFkB; [3]) was greater than 100 µM.
In the case of `NC(=O)c1cccc2c1nnn2[C@@H]1O[C@@H]2COP(O)(=S)OC[C@@H]3[C@@H](COP(O)(=S)O[C@@H]1[C@@H]2F)C[C@H]3n1cnc2c(N)ncnc21` (single isomer, unassigned) [Example 11-2], the IC50 [1] is reported as 1.4 µM, the EC50 (IRF3; 20 hours) is reported as greater than 100 µM and the IC50 [2] is reported as 19.4 µM. The EC50 (NFkB; [3]) was greater than 100 µM.
In the case of `Nc1ncnc2c1ncn2[C@@H]1C[C@@H]2COP(=O)(S)O[C@H]3[C@@H](F)[C@H](n4cnc5c(N)ncnc54)O[C@@H]3COP(=O)(S)OC[C@H]21` (single isomer, unassigned) [Example 2-1], the IC50 [1] is reported as 0.21 µM, the EC50 (IRF3; 20 hours) is reported as greater than 100 µM and the IC50 [2] is reported as 24 µM. It also gave an EC50 (NFkB; [3]) greater than 100 µM.
Work on `Nc1nc2c(ncn2[C@@H]2C[C@@H]3COP(O)(=S)O[C@H]4[C@@H](F)[C@H](n5cnc6c(N)ncnc65)O[C@@H]4COP(O)(=S)OC[C@H]32)c(=O)[nH]1` (single isomer, unassigned) [Example 18-2] yielded an IC50 [1] of 0.02 µM, an EC50 (IRF3; 20 hours) greater than 100 µM and an IC50 [2] of 0.15 µM. It also gave an EC50 (NFkB; [3]) greater than 100 µM.
`NC(=O)c1cccc2c1nnn2[C@@H]1C[C@@H]2COP(O)(=S)O[C@H]3[C@@H](F)[C@H](n4cnc5c(N)ncnc54)O[C@@H]3COP(O)(=S)OC[C@H]21` (single isomer, unassigned) [Example 13-3] was tested, and the IC50 [1] was 3.8 µM, the EC50 (IRF3; 20 hours) was greater than 100 µM and the IC50 [2] was greater than 100 µM. It also gave an EC50 (NFkB; [3]) greater than 100 µM.
With `Nc1ncnc2c1ncn2[C@@H]1C[C@@H]2COP(=O)(S)O[C@H]3[C@@H](F)[C@H](n4cnc5c(N)ncnc54)O[C@@H]3COP(=O)(S)OC[C@H]21` (single isomer, unassigned) [Example 1-1] the IC50 [1] was 0.06 µM, the EC50 (IRF3; 20 hours) was greater than 100 µM and the IC50 [2] was 1.6 µM. The EC50 (NFkB; [3]) was greater than 100 µM.
With `NC(=O)c1cccc2c1nnn2[C@@H]1C[C@@H]2COP(O)(=S)O[C@H]3[C@@H](F)[C@H](n4cnc5c(N)ncnc54)O[C@@H]3COP(O)(=S)OC[C@H]21` (single isomer, unassigned) [Example 13-4] the IC50 [1] was 0.05 µM, the EC50 (IRF3; 20 hours) was 86 µM and the IC50 [2] was 3 µM. It also gave an EC50 (NFkB; [3]) greater than 100 µM.
For `Nc1ncnc2c1ncn2[C@@H]1C[C@@H]2COP(O)(=S)O[C@@H]3[C@H](O)[C@@H](COP(O)(=S)OC[C@H]21)O[C@H]3n1cnc2c(N)ncnc21` (single isomer, unassigned) [Example 4-1], the IC50 [1] was 2.8 µM, the EC50 (IRF3; Homo sapiens, THP-1, 20 h) was greater than 100 µM and the IC50 [2] was greater than 100 µM. For the same molecule, the EC50 (NFkB; [4]) was greater than 100 µM.
Molecule `Nc1ncnc2c1ncn2[C@@H]1O[C@@H]2COP(O)(=S)OC[C@@H]3[C@@H](COP(O)(=S)O[C@H]2[C@H]1F)C[C@H]3n1cnc2c(O)nc3nccn3c21` (single isomer, unassigned) [Example 3-1] has an IC50 [1] of 0.43 µM, an EC50 (IRF3; 20 hours) greater than 100 µM and an IC50 [2] of 15 µM. For the same molecule, the EC50 (NFkB; [3]) was greater than 100 µM.
Work on `Nc1ncnc2c1ncn2[C@@H]1C[C@@H]2COP(=O)(S)O[C@H]3[C@@H](F)[C@H](n4cnc5c(N)ncnc54)O[C@@H]3COP(=O)(S)OC[C@H]21` (single isomer, unassigned) [Example 1-2] yielded an IC50 [1] of 0.01 µM, an EC50 (IRF3; 20 hours) of 3 µM and an IC50 [2] of 0.09 µM. It also gave an EC50 (NFkB; [3]) of 6 µM.
In the case of `NC(=O)c1cccc2c1nnn2[C@@H]1O[C@@H]2COP(O)(=S)OC[C@@H]3[C@@H](COP(O)(=S)O[C@@H]1[C@@H]2F)C[C@H]3n1cnc2c(N)ncnc21` (single isomer, unassigned) [Example 11-3], the IC50 [1] is reported as 0.11 µM, the EC50 (IRF3; 20 hours) is reported as 70 µM and the IC50 [2] is reported as 0.82 µM. The EC50 (NFkB; [3]) was 51 µM.
In the case of `Nc1ncnc2c1ncn2[C@@H]1O[C@@H]2COP(O)(=S)OC[C@@H]3[C@@H](COP(O)(=S)O[C@H]2[C@H]1F)C[C@H]3n1cnc2c(O)nc3nccn3c21` (single isomer, unassigned) [Example 3-4], the IC50 [1] is reported as 0.09 µM, the EC50 (IRF3; 20 hours) is reported as 31 µM and the IC50 [2] is reported as 1 µM. For the same molecule, the EC50 (NFkB; [3]) was 40 µM.
Molecule `Nc1ncnc2c1ncn2[C@@H]1O[C@@H]2COP(O)(=S)OC[C@@H]3[C@@H](COP(O)(=S)O[C@H]2[C@H]1F)C[C@H]3n1cnc2c(=O)[nH]cnc21` (single isomer, unassigned) [Example 5-4] has an IC50 [1] of 0.01 µM, an EC50 (IRF3; 20 hours) of 12 µM and an IC50 [2] of 0.12 µM. The EC50 (NFkB; [3]) was 91 µM.
Molecule `Nc1nc2c(ncn2[C@@H]2C[C@@H]3COP(O)(=S)O[C@H]4[C@@H](F)[C@H](n5cnc6c(N)ncnc65)O[C@@H]4COP(O)(=S)OC[C@H]32)c(=O)[nH]1` (single isomer, unassigned) [Example 18-1] has an IC50 [1] of 0.002 µM, an EC50 (IRF3; 20 hours) of 0.6 µM and an IC50 [2] of 0.004 µM. For the same molecule, the EC50 (NFkB; [3]) was 2.6 µM.
Molecule `Nc1ncnc2c1ncn2[C@@H]1O[C@@H]2COP(O)(=S)OC[C@@H]3[C@@H](COP(O)(=S)O[C@H]2[C@H]1F)C[C@H]3n1cnc2c(O)nc3nccn3c21` (single isomer, unassigned) [Example 3-3] has an IC50 [1] of 0.14 µM, an EC50 (IRF3; 20 hours) of 33 µM and an IC50 [2] of 0.18 µM. It also gave an EC50 (NFkB; [3]) of 58 µM.
